For 24 molecules, inhibition results are on record in patent publication US7595398B2, “N-(5-membered aromatic ring)-amido anti-viral compounds” (SmithKline Beecham Corporation, priority 2005, dated 2009).

The inhibition is how much of the control response was suppressed. High values mean a response far below the control, low ones a response near the control.

For the experiment, the system named is HCV replicon I389luc-ubi-neo/NS3-3′/ET in ET (Huh-lucubineo-ET) cells; screening for HCV RNA dependent RNA polymerase. Briefly: Replicon Assay (luciferase, ET cell line Huh-lucubineo-ET). The experiment is classed as cell-based. Particulars: Hepatitis C virus; inhibition of replication relative to no compound control; test concentration of 10 μM according to the fitted equation; luciferase 48-72 hours. The method, then: A cell line, ET (Huh-lucubineo-ET) was used for screening of compounds of the present invention for HCV RNA dependent RNA polymerase. The ET cell line was stably transfected with RNA transcripts harboring a I389luc-ubi-neo/NS3-3′/ET; replicon with firefly luciferase-ubiquitin-neomycin phosphotransferase fusion protein and EMCV-IRES driven NS3-5B polyprotein containing the cell culture adaptive mutations (E1202G; T12801; K1846T) (Krieger at al, 2001 and unpublished). The ET cells were grown in DMEM, supplemented with 10% fetal calf serum, 2 mM Glutamine, Penicillin (100 IU/mL)/Streptomycin (100 μg/mL), 1× nonessential amino acids, and 250 μg/mL G418 (“Geneticin”). They were all available through Life Technologies (Bethesda, Md.). The cells were plated at 0.5-1.0×10^4 cells/well in the 96 well plates and incubated for 24 hrs before adding nucleoside analogs. […] Luciferase activity were measured 48-72 hours later by adding a lysis buffer and the substrate (Catalog number Glo-lysis buffer E2661 and Bright-Glo luciferase system E2620 Promega, Madison, Wis.). Cells should not be too confluent during the assay. Percent inhibition of replication was plotted relative to no compound control. Under the same condition, cytotoxicity of the compounds was determined using cell proliferation reagent, WST-1(Roche, Germany). The compounds showing antiviral activities, but no significant cytotoxicities were chosen to determine IC50 and TC50. For these determinations, 10 concentrations of each compound were used. Concentrations for test compounds typically span a range of 500 fold. IC50 and TC50 values were calculated by fitting % inhibition at each concentration (I) to the following equation: % inhibition=100%/[1+10^(log IC50−log (I))*b] where b is Hill's coefficient.
A general note: Replicon systems follow genome replication, usually without infectious particles.
Molecule `O=C(Nc1nc(-c2cccc3ccccc23)cs1)[C@@H]1CCCN1C(=O)OCc1ccccc1` [Compound 5055, 2-(4-Naphthalen-1-yl-thiazol-2-ylcarbamoyl)-pyrrolidine-1-carboxylic acid benzyl ester] displayed an inhibition at 10 µM of 99.3%.
With `O=C(Nc1nc(-c2ccc(F)c(F)c2)cs1)[C@@H]1CCCN1C(=O)OCc1ccccc1` [Compound 5056, 2-[4-(3,4-Difluoro-phenyl)-thiazol-2-ylcarbamoyl]-pyrrolidine-1-carboxylic acid benzyl ester] the figure was 99.3%; with `O=C(Nc1nc(-c2ccc3c(c2)Cc2ccccc2-3)cs1)[C@@H]1CCCN1C(=O)OCc1ccccc1` [Compound 5058, 2-[4-(9H-Fluoren-2-yl)-thiazol-2-ylcarbamoyl]-pyrrolidine-1-carboxylic acid benzyl ester], 18.6%; with `O=C(Nc1nc(-c2c(F)cccc2F)cs1)[C@@H]1CCCN1C(=O)OCc1ccccc1` [Compound 5059, 2-[4-(2,6-Difluoro-phenyl)-thiazol-2-ylcarbamoyl]-pyrrolidine-1-carboxylic acid benzyl ester], 88%.
With `O=C(Nc1nc(-c2ccc3ccccc3c2)cs1)[C@@H]1CCCN1C(=O)OCc1ccccc1` [Compound 5060, 2-(4-Naphthalen-2-yl-thiazol-2-ylcarbamoyl)-pyrrolidine-1-carboxylic acid benzyl ester] the figure was 98.4%; with `O=C(Nc1nc(CSc2nc(-c3ccc(F)cc3)cs2)cs1)[C@@H]1CCCN1C(=O)OCc1ccccc1` [Compound 5061, 2-{4-[4-(4-Fluoro-phenyl)-thiazol-2-ylsulfanylmethyl]-thiazol-2-ylcarbamoyl}-pyrrolidine-1-carboxylic acid benzyl ester], 88.4%; with `Cc1cc(-c2csc(NC(=O)[C@@H]3CCCN3C(=O)OCc3ccccc3)n2)cc(C)c1C` [Compound 5062, 2-[4-(3,4,5-Trimethyl-phenyl)-thiazol-2-ylcarbamoyl]-pyrrolidine-1-carboxylic acid benzyl ester], 94.7%.
With `O=C(Nc1ncc(Cc2ccc(Cl)cc2)s1)[C@@H]1CCCN1C(=O)OCc1ccccc1` [Compound 5063, 2-[5-(4-Chloro-benzyl)-thiazol-2-ylcarbamoyl]-pyrrolidine-1-carboxylic acid benzyl ester] the figure was 51.7%; with `O=C(Nc1nc(CSc2nc3ccccc3[nH]2)cs1)[C@@H]1CCCN1C(=O)OCc1ccccc1` [Compound 5064, 2-[4-(1H-Benzoimidazol-2-ylsulfanylmethyl)-thiazol-2-ylcarbamoyl]-pyrrolidine-1-carboxylic acid benzyl ester], 18.1%.
As to `O=C(Nc1cc(-c2ccccc2)nn1-c1ccccc1)[C@@H]1CCCN1C(=O)OCc1ccccc1` [Compound 5065, 2-(2,5-Diphenyl-2H-pyrazol-3-ylcarbamoyl)-pyrrolidine-1-carboxylic acid benzyl ester], 10 µM produced 27.2% inhibition.
With `O=C(Nc1nc(-c2ccc(OCc3ccc(Br)cc3)cc2)cs1)[C@@H]1CCCN1C(=O)OCc1ccccc1` [Compound 5066, 2-{4-[4-(4-Bromo-benzyloxy)-phenyl]-thiazol-2-ylcarbamoyl}-pyrrolidine-1-carboxylic acid benzyl ester] the figure was 5.72%.
With `Cc1cccc(Cc2cnc(NC(=O)[C@@H]3CCCN3C(=O)OCc3ccccc3)s2)c1` [Compound 5067, 2-[5-(3-Methyl-benzyl)-thiazol-2-ylcarbamoyl]-pyrrolidine-1-carboxylic acid benzyl ester] the figure was 23.9%; with `O=C(Cc1csc(NC(=O)[C@@H]2CCCN2C(=O)OCc2ccccc2)n1)NCCc1ccccc1` [Compound 5068, 2-[4-(Phenethylcarbamoyl-methyl)-thiazol-2-ylcarbamoyl]-pyrrolidine-1-carboxylic acid benzyl ester], 13.5%.
Then `CC(C)c1ccc(-c2csc(NC(=O)[C@@H]3CCCN3C(=O)OCc3ccccc3)n2)cc1` [Compound 5069, 2-[4-(4-Isopropyl-phenyl)-thiazol-2-ylcarbamoyl]-pyrrolidine-1-carboxylic acid benzyl ester], with 3.15%; and `CCCCC(=O)Nc1ccc(-c2csc(NC(=O)[C@@H]3CCCN3C(=O)OCc3ccccc3)n2)cc1` [Compound 5089, 2-[4-(4-Pentanoylamino-phenyl)-thiazol-2-ylcarbamoyl]-pyrrolidine-1-carboxylic acid benzyl ester], with 100%.
With `COc1ccc(-c2csc(NC(=O)[C@@H]3CCCN3C(=O)OCc3ccccc3)n2)cc1Cl` [Compound 5090, 2-[4-(3-Chloro-4-methoxy-phenyl)-thiazol-2-ylcarbamoyl]-pyrrolidine-1-carboxylic acid benzyl ester], the inhibition at 10 µM came to 99.8%.
With `COc1ccc(-c2csc(NC(=O)[C@@H]3CCCN3C(=O)OCc3ccccc3)n2)cc1[N+](=O)[O-]` [Compound 5091, 2-[4-(4-Methoxy-3-nitro-phenyl)-thiazol-2-ylcarbamoyl]-pyrrolidine-1-carboxylic acid benzyl ester] the figure was 100%; with `CCNC(=O)c1ccc(-c2csc(NC(=O)[C@@H]3CCCN3C(=O)OCc3ccccc3)n2)cc1` [Compound 5092, 2-[4-(4-Ethylcarbamoyl-phenyl)-thiazol-2-ylcarbamoyl]-pyrrolidine-1-carboxylic acid benzyl ester], 100%; with `O=C(CCCCC1SCC2NC(=O)NC21)Nc1ccc(-c2csc(NC(=O)[C@@H]3CCCN3C(=O)OCc3ccccc3)n2)cc1` (stereo partly drawn) [Compound 5093, 2-(4-{4-[5-(2-Oxo-hexahydro-thieno[3,4-d]imidazol-4-yl)-pentanoylamino]-phenyl}-thiazol-2-ylcarbamoyl)-pyrrolidine-1-carboxylic acid benzyl ester], 100%.
Then `CCc1ccc(-c2csc(NC(=O)[C@@H]3CCCN3C(=O)OCc3ccccc3)n2)cc1` [Compound 5094, 2-[4-(4-Ethyl-phenyl)-thiazol-2-ylcarbamoyl]-pyrrolidine-1-carboxylic acid benzyl ester], with 3.49%; and `O=C(NC1CC1)c1ccc(-c2csc(NC(=O)[C@@H]3CCCN3C(=O)OCc3ccccc3)n2)cc1` [Compound 5096, 2-[4-(4-Cyclopropylcarbamoyl-phenyl)-thiazol-2-ylcarbamoyl]-pyrrolidine-1-carboxylic acid benzyl ester], with 100%; and `O=C(Nc1nc(-c2ccc(Br)cc2)cs1)[C@@H]1CCCN1C(=O)OCc1ccccc1` [Compound 5097, 2-[4-(4-Bromo-phenyl)-thiazol-2-ylcarbamoyl]-pyrrolidine-1-carboxylic acid benzyl ester], with 43.3%.
`O=C(Nc1nc(-c2ccc(F)cc2)cs1)[C@@H]1CCCN1C(=O)OCc1ccccc1` [Compound 5098, 2-[4-(4-Fluoro-phenyl)-thiazol-2-ylcarbamoyl]-pyrrolidine-1-carboxylic acid benzyl ester] came in with an inhibition at 10 µM of 97.2%.
`CCCc1ccc(-c2csc(NC(=O)[C@@H]3CCCN3C(=O)OCc3ccccc3)n2)cc1` [Compound 5099, 2-[4-(4-Propyl-phenyl)-thiazol-2-ylcarbamoyl]-pyrrolidine-1-carboxylic acid benzyl ester] returned an inhibition at 10 µM of 35.7%.
